Test results reported in paper PMC11219871, “Epigenetic-based differentiation therapy for Acute Myeloid Leukemia” (Nature Communications, 2024).

Assays:
EZH2 (P132S) = biological target: T1, EZH2 (P132S) (Homo sapiens, UniProt Q15910, P132S); experiment: Epigenetic panel (BPS Bioscience); assay type: biochemical
T1 construct: purchased BPS Bioscience; Eurofins (HDAC4, 5, 7-11)
Source text: (§1) The selectivity of CM-444 and CM-1758 against other epigenetic targets, including histone demethylase (JMJD2A, JMJD2B, JMJD2C, JMJD2D, JMJD2E, JMJD3, JMJD1A, LSD1, Jarid1A, Jarid1B, Jarid1C, FBXL10, FBXL11, JHDM1D, JMJD1B, PHF8, LSD2 and UTX); histone acetyltransferases (GCN5, P300); histone methyltransferases (G9a, GLP, MLL1, SET7/9, SUV39H1, SUV39H2, PRMT1, PRMT3, PRMT4, PRMT5, PRMT6, PRMT8, PRMT9, NSD1, NSD2, EZH1, EZH2, SETDB1, SETD2, SET8, SUV4-20H1, SMYD2, SMYD3, DOT1L, EZH2 (A677G), EZH2 (A677G), EZH2 (A738T), EZH2 (Y641S), EZH2 (P132S), EZH2 (Y641C), EZH2 (Y641F), EZH2 (Y641H), EZH2 (Y641N)); bromodomains (ATAD2B, ATAD2A, BRD1, BRD9, BPTF/FALZ, CeCR2, BRPF3, BRD3 (BD1 + BD2), BAZ2B, WDR9, TAF1 (BD2), TAF1L (BD2), TAF1L (BD1 + BD2), BRD2 (BD1), BRD2 (BD2), BRD2 (BD1 + BD2), BRD3 (BD1), BRD3 (BD2), BRD4 (BD1), BRD4 (BD2), BRD4 (BD1 + BD2), BRDT (BD1), BRDT (BD1 + BD2), CREBBP, SMARCA2A, SMARCA4/BRG1); DNA methyltranferases (DNMT1, DNMT3A/3L and DNMT3B/3L), and sirtuin histone deacetylases (SIRT1, SIRT2, SIRT3, SIRT5 and SIRT6), were determined by BPS Bioscience (http://www.bpsbioscience.com/index.ph). Binding experiments were performed in duplicate at a concentration of 10 μM.

EZH2 (Y641N) = biological target: T2, EZH2 (Y641N) (Homo sapiens, UniProt Q15910, Y641N); experiment: Epigenetic panel (BPS Bioscience); assay type: biochemical
T2 construct: purchased BPS Bioscience; Eurofins (HDAC4, 5, 7-11)
Source text: as §1

FBXL10 = biological target: T3, FBXL10 (Homo sapiens, UniProt Q8NHM5); experiment: Epigenetic panel (BPS Bioscience); assay type: biochemical
T3 construct: purchased BPS Bioscience (contracted assay service)
T3 sequence (Q8NHM5 1-1336): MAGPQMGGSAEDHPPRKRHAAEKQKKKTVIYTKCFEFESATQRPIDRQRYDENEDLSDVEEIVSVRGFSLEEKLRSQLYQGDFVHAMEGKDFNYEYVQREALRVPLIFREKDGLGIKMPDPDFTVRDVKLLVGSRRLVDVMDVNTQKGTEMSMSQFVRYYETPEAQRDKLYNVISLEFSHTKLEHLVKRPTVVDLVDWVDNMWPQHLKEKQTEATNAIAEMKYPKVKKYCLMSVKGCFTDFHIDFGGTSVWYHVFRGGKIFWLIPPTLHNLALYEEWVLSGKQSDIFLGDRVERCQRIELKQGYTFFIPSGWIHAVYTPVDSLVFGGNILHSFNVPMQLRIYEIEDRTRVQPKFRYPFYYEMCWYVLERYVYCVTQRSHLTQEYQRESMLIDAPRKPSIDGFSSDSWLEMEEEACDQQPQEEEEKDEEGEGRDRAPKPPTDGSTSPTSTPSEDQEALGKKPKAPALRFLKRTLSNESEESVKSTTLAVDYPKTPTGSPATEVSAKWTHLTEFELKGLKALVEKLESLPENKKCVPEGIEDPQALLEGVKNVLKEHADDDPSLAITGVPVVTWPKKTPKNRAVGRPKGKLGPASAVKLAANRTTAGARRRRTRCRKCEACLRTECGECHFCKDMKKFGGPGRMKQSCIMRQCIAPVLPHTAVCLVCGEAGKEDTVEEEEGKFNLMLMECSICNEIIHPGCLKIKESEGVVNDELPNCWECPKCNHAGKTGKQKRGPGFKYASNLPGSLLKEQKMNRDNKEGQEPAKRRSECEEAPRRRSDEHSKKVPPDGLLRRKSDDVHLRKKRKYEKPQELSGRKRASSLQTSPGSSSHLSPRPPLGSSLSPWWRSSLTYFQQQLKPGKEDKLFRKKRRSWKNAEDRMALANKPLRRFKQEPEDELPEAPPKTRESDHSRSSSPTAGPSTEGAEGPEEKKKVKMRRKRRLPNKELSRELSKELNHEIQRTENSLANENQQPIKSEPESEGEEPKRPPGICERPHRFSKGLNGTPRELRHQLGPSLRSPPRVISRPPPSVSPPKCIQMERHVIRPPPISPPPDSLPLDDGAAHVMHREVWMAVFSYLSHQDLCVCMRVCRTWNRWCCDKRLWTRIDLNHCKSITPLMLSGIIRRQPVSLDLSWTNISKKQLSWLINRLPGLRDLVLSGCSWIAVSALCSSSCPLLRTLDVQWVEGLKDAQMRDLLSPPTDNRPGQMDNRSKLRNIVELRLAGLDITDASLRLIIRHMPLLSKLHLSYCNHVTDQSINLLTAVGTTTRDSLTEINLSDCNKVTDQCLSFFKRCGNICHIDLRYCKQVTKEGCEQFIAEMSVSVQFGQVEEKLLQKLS
Source text: as §1

GLP = biological target: T4, GLP (Homo sapiens, UniProt Q9H9B1); experiment: Epigenetic panel (BPS Bioscience); assay type: biochemical
T4 construct: purchased BPS Bioscience; Eurofins (HDAC4, 5, 7-11)
Source text: as §1

LSD2 = biological target: T5, LSD2 (Homo sapiens, UniProt Q8NB78); experiment: Epigenetic panel (BPS Bioscience); assay type: biochemical
T5 construct: purchased BPS Bioscience; Eurofins (HDAC4, 5, 7-11)
Source text: as §1

MLL1 = biological target: T6, MLL1 (Homo sapiens, UniProt Q03164); experiment: Epigenetic panel (BPS Bioscience); assay type: biochemical
T6 construct: purchased BPS Bioscience; Eurofins (HDAC4, 5, 7-11)
Source text: as §1

SETD2 = biological target: T7, SETD2 (Homo sapiens, UniProt Q9BYW2); experiment: Epigenetic panel (BPS Bioscience); assay type: biochemical
T7 construct: purchased BPS Bioscience; Eurofins (HDAC4, 5, 7-11)
Source text: as §1

SUV39H2 = biological target: T8, SUV39H2 (Homo sapiens, UniProt Q9H5I1); experiment: Epigenetic panel (BPS Bioscience); assay type: biochemical
T8 construct: purchased BPS Bioscience; Eurofins (HDAC4, 5, 7-11)
Source text: as §1

Cytotoxicity (LC50) = assay type: cell-based; conditions: human, PBMCs from healthy donors, 72-h exposure

T4 sequence (Q9H9B1 whole entry): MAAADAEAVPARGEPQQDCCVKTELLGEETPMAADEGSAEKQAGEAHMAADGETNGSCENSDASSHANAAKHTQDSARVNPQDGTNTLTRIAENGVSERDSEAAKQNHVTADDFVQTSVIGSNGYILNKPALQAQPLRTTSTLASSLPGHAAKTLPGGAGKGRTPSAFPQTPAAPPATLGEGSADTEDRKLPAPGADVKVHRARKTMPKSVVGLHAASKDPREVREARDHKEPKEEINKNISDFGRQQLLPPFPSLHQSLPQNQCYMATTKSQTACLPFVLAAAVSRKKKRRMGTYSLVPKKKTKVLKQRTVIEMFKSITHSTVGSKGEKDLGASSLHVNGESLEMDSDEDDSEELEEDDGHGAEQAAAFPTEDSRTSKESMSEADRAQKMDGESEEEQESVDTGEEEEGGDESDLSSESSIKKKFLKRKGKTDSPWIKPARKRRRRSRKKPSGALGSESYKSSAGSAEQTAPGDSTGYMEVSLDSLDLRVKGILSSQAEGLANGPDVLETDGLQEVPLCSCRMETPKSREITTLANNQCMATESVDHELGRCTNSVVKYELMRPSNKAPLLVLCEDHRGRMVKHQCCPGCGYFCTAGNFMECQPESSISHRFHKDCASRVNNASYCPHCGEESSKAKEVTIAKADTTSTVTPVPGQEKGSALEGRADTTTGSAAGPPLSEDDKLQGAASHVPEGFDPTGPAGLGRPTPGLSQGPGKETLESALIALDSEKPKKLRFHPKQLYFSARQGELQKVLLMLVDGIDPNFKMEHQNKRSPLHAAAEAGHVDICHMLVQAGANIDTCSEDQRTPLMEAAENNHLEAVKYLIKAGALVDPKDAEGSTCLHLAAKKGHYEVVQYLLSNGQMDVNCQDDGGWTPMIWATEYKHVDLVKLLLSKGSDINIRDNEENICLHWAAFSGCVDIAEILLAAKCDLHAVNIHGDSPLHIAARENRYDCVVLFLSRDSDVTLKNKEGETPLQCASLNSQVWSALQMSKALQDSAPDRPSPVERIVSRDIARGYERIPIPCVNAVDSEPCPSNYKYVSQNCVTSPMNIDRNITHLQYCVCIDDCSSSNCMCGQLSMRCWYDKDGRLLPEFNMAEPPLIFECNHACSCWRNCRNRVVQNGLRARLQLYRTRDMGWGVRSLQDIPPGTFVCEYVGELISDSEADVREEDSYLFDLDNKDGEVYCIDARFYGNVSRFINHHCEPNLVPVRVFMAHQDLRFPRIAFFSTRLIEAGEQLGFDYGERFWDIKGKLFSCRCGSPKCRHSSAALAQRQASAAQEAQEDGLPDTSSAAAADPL
T1 sequence (Q15910 whole entry P132S): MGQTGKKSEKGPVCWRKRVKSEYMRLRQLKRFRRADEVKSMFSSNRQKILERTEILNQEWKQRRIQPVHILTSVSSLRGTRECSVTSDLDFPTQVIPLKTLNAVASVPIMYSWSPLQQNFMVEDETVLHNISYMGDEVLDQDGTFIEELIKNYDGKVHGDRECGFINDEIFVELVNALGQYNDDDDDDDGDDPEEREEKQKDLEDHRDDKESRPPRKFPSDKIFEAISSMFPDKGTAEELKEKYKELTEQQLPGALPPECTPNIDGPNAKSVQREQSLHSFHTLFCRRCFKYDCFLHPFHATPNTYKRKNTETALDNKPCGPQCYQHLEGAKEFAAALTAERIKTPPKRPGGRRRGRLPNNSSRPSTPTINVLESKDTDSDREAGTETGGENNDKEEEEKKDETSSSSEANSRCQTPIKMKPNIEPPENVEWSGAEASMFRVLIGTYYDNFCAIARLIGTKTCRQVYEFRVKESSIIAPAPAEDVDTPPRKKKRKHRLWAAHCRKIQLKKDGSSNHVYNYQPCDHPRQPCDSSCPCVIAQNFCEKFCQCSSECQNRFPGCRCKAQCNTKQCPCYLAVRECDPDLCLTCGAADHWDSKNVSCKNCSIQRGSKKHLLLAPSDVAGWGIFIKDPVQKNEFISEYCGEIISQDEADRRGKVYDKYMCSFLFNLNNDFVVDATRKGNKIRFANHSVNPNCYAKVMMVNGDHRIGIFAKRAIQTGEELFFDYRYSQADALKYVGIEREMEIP
T1 sequence (O75530 whole entry partner): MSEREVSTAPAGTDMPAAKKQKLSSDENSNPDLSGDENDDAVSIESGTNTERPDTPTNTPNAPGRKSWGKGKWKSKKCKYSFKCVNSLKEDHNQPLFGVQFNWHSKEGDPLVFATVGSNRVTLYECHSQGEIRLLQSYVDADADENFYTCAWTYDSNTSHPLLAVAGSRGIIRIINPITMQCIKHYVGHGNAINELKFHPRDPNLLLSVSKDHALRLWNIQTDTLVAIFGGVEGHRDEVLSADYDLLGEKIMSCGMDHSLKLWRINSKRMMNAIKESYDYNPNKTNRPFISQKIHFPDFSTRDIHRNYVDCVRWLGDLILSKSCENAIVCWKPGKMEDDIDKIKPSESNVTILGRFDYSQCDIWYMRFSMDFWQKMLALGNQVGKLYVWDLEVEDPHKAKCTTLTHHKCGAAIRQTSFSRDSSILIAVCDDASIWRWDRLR
T1 sequence (Q15022 whole entry partner): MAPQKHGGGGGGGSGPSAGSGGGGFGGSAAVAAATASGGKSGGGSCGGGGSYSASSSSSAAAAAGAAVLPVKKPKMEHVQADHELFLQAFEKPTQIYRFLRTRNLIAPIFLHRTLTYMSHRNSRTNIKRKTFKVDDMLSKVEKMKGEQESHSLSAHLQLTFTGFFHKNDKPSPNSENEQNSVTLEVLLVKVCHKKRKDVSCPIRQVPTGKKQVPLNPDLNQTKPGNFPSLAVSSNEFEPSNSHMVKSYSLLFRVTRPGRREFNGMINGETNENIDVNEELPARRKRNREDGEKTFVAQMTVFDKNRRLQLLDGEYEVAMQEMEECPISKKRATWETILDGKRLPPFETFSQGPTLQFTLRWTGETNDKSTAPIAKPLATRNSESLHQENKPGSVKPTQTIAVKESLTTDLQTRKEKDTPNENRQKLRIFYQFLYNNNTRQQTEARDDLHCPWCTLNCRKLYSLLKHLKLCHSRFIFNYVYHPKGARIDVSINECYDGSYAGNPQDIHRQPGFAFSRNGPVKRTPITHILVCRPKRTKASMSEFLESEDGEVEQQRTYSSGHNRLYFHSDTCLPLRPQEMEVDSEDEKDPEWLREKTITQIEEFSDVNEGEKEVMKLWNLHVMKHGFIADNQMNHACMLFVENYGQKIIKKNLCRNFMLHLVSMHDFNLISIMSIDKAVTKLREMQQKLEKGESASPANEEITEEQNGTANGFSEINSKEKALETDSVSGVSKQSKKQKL
T1 sequence (Q09028 whole entry partner): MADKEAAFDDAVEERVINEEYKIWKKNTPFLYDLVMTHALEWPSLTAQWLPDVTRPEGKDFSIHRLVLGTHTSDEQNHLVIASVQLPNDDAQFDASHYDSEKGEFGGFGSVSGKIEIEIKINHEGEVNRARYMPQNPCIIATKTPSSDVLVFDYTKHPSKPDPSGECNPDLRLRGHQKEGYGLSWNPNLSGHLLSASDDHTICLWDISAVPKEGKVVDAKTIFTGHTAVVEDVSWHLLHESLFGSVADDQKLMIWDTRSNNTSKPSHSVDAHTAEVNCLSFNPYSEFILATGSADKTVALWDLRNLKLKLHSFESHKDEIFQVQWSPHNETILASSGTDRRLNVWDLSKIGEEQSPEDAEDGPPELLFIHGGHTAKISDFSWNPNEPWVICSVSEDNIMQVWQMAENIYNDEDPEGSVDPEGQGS
T1 sequence (Q6ZN18 whole entry partner): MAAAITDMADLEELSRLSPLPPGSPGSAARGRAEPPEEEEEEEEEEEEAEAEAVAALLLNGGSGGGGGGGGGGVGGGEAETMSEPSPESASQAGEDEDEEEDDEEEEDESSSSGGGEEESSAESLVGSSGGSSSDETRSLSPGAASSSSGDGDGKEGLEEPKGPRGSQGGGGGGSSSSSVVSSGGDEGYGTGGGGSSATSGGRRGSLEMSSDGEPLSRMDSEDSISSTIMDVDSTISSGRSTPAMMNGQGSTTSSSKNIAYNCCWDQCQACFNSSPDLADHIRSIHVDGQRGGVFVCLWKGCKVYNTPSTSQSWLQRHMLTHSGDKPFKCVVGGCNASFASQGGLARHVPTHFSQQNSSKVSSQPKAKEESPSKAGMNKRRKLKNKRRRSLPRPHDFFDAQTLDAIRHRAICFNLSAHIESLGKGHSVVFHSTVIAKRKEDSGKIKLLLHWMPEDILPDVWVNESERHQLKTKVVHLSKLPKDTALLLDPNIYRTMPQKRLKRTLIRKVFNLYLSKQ
T2 sequence (Q15910 whole entry Y641N): as the sequence (Q15910 whole entry P132S) above, with S132P, Y641N counted along it
T2 sequence (O75530 whole entry partner): as the sequence (O75530 whole entry partner) above
T2 sequence (Q15022 whole entry partner): as the sequence (Q15022 whole entry partner) above
T2 sequence (Q09028 whole entry partner): as the sequence (Q09028 whole entry partner) above
T2 sequence (Q6ZN18 whole entry partner): as the sequence (Q6ZN18 whole entry partner) above
T8 sequence (Q9H5I1 whole entry): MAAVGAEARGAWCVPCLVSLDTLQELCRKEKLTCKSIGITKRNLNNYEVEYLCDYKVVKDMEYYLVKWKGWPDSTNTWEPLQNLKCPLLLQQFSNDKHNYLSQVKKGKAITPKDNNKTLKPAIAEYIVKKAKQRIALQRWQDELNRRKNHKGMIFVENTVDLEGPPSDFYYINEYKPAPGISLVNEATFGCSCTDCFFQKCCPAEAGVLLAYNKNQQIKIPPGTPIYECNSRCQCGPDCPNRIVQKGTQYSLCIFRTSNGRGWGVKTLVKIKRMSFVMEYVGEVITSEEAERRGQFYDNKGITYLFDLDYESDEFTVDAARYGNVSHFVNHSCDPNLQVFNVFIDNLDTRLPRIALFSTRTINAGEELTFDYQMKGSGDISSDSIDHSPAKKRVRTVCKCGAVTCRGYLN

Row | SMILES | inhibition at 10 µM (EZH2 (P132S)) [%] | inhibition at 10 µM (EZH2 (Y641N)) [%] | IC50 (FBXL10) [µM] | inhibition at 10 µM (FBXL10) [%] | inhibition at 10 µM (GLP) [%] | inhibition at 10 µM (LSD2) [%] | inhibition at 10 µM (MLL1) [%] | inhibition at 10 µM (SETD2) [%] | inhibition at 10 µM (SUV39H2) [%] | CC50 at 72 h (Cytotoxicity (LC50)) [µM]
1 | COc1cc2nc(-c3ccc(C)o3)cc(NCC3CCN(c4ncc(C(=O)NO)cn4)CC3)c2cc1OC [CM-444, 2-[4-[[[6,7-dimethoxy-2-(5-methyl-2-furyl)-4-quinolyl]amino]methyl]-1-piperidyl]pyrimidine-5-carbohydroxamic acid] | 0 | 2 | 6.7 | 58 | 0 | 21 | 0 | 0 | 0 | 1.24
2 | COc1cc2nc(-c3cc(C)oc3C)cc(NCC3CCN(c4ncc(C(=O)NO)cn4)CC3)c2cc1OC [CM-1758, 2-[4-[[[2-(2,5-dimethyl-3-furyl)-6,7-dimethoxy-4-quinolyl]amino]methyl] -1-piperidyl]pyrimidine-5-carbohydroxamic acid] | 0 | 0 | – | 34 | 7 | 22 | 1 | 11 | 1 | 2.41
